According to US7884067B2, “Peptides derived from cadherin and methods of use thereof” (Mount Sinai School of Medicine of New York University, priority 2001, dated 2011):

Tests used:
[1] = test system: CRE-dependent transactivation; test: CRE-dependent transactivation in N2a cells; format: cell-based, mouse; design: dose or concentration left out as unconfirmed; details: 16 hours, vs DMSO, FIG. 10A
Procedure: (§1) Transactivation assays. CRE-dependent transactivation was measured in the absence or presence of overexpression of PKA (pFC-PKA, Stratagene) by cotransfection with CRE-luciferase reporter plasmid (pCRE-Luc, Stratagene) and pSV-β-galactosidase vector (Promega) to evaluate transfection efficiency. CHOP-mediated transactivation was measured by cotransfection with the Gal4-fusion trans-activator plasmids (pFA-CHOP and pFR-Luc, Stratagene). 30 hours after transfection, luciferase and β-galactosidase activities were determined following manufacturer's instructions using a TD-20/20 luminometer (Turner Designs) and a DU-64 spectrophotometer (Beckman). Values were normalized to β-galactosidase activity and protein concentration.
N2a cells co-transfected with plasmids pCRE-luc, pFC-PKA, and pSV-β-galactosidase were incubated for 16 hours with DMSO or with L-685,458 ([…]) and CRE-dependent transactivation was measured as described above. […] Total RNA isolated from N2a cells treated either with DMSO or with L-685,458, was analyzed by semiquantitative RT-PCR using specific primers for c-fos and gapdh. The graph in FIG. 10B represents the relative abundance of c-fos-specific PCR products following quantitation of the mRNA signals shown in the upper panel. […]

c-fos = c-fos mRNA (RT-PCR) and protein (Western blot) in N2a cells; format: cell-based, mouse
Procedure: Reverse Transcriptase (RT)-PCR Analysis. Total RNA was extracted from cells using a RNeasy Mini Kit (Qiagen) according to instructions by the manufacturer. Analysis of gene expression was performed using semiquantitative RT-PCR. The following primers were used: 5′-[…]-3′ (SEQ ID NO: 13) and 5′-[…]-3′ (SEQ ID NO: 14) for c-fos; 5′-[…]-3′ (SEQ ID NO: 15) and 5′-[…]-3′ (SEQ ID NO: 16) for gapdh.
N2a cells co-transfected with plasmids pCRE-luc, pFC-PKA, and pSV-β-galactosidase were incubated for 16 hours with DMSO or with L-685,458 ([…]) and CRE-dependent transactivation was measured as described above. Data in FIG. 10A are the mean+/−s.e. of 3 experiments normalized to β-galactosidase activity and protein concentration. *, P<0.05 (Student's t test). Total RNA isolated from N2a cells treated either with DMSO or with L-685,458, was analyzed by semiquantitative RT-PCR using specific primers for c-fos and gapdh. The graph in FIG. 10B represents the relative abundance of c-fos-specific PCR products following quantitation of the mRNA signals shown in the upper panel. Extract from N2a cells treated either with DMSO or with L-685,458, were probed on WBs with anti-c-fos or anti-β-tubulin antibodies. Extract from PS1+/+ or PS1−/− mouse fibroblasts were probed on WBs with either anti-c-fos or anti-β-tubulin antibodies. Extract from PS1+/− or PS1−/− mouse embryonic brains were probed on WBs with anti-c-fos (FIG. 10E, upper panel), anti-b-tubulin (FIG. 10E, middle panel), or anti-PS1/CTF (FIG. 10E, lower panel) antibodies.

CHOP-response elements = test: CHOP-mediated transactivation (luciferase) in L cells; format: cell-based; details: L cells transfected with pN-Cad/CTF2, FIG. 9A
Procedure: as §1
(§2) Stimulation of synaptic NMDA receptor leads to phosphorylation of transcription factor CREB that then recruits transcription co-activator CBP, a process ultimately leading to activation of CREB-mediated gene expression (Impey and Goodman (2001) Sci STKE, PE1). […] CRE-dependent transactivation was measured in the absence (−) or presence (+) of […] PKA (pFC-PKA) using CRE-luciferase reporter plasmid (pCRE-Luc) and pSV-β-galactosidase vector. CHOP-mediated transactivation was measured by […] with the Gal4-fusion trans-activator plasmids (pFA-CHOP and pFR-Luc) and pSV-β-galactosidase vector. […]

CBP/CREB complex = molecular target: T1, CBP/CREB complex (Mus musculus, UniProt P45481); test: Electrophoretic mobility shift assay, CREB probe; format: biochemical; details: nuclear extract from cells transfected with 0.2 μg and 0.5 μg pN-Cad/CTF2, FIG. 11C lanes 6-8
T1 construct: full length mouse CBP inserted into vector pRc/RSV; expressed in transfected cells; host or cells: L cells transfected with mouse CBP (pRc/RSV), without or with 0.2 or 0.5 µg pN-Cad/CTF2; nuclear extract
Procedure: Electrophoresis mobility shift assay (EMSA). Nuclear extract from CBP-transfected L cells were prepared using the extraction kit N-XTRACT (Sigma) according to manufacturer's instructions. Ten microgram of nuclear extract was used for EMSA performed according to manufacturer's instructions using biotinylated double-stranded oligonucleotide probes containing DNA-binding motifs for CREB or MEF-1 (Panomics). Probes are as follow: CREB, 5′-[…]-3′ (SEQ ID NO: 17); MEF-1,5′-[…]-3′ (SEQ ID NO: 18). Reaction products were separated on 6% polyacrylamide gels in cold TBE buffer (50 mM Tris-HCl, 45 mM Boric acid, 0.5 mM EDTA), transferred to nylon membranes (Immobilon-Ny+, Millipore) and bound probes were immobilized for 30 minutes at 85° C. and visualized by chemiluminescence using streptavidin-HRP conjugate. For antibody supershift analysis, nuclear extract was incubated for 3 hours at 4° C. with […] of 1 B6 antibody prior to probe addition. Where indicated, nuclear extract ([…]) was immunoprecipitated with A-22 antibody ([…]) and protein A-agarose in EBC buffer (50 mM Tris, pH 8, 120 mM NaCl, 0.5% NP40, 1× Complete protease inhibitor cocktail).

[2] = test system: CRE-dependent transactivation; test: CRE-dependent transactivation (luciferase) in L cells; format: cell-based; details: L cells transfected with increasing amount of pN-Cad/CTF2, FIG. 9A
Procedure: as §1, §2

T1 sequence (P45481 whole entry, one chain of several): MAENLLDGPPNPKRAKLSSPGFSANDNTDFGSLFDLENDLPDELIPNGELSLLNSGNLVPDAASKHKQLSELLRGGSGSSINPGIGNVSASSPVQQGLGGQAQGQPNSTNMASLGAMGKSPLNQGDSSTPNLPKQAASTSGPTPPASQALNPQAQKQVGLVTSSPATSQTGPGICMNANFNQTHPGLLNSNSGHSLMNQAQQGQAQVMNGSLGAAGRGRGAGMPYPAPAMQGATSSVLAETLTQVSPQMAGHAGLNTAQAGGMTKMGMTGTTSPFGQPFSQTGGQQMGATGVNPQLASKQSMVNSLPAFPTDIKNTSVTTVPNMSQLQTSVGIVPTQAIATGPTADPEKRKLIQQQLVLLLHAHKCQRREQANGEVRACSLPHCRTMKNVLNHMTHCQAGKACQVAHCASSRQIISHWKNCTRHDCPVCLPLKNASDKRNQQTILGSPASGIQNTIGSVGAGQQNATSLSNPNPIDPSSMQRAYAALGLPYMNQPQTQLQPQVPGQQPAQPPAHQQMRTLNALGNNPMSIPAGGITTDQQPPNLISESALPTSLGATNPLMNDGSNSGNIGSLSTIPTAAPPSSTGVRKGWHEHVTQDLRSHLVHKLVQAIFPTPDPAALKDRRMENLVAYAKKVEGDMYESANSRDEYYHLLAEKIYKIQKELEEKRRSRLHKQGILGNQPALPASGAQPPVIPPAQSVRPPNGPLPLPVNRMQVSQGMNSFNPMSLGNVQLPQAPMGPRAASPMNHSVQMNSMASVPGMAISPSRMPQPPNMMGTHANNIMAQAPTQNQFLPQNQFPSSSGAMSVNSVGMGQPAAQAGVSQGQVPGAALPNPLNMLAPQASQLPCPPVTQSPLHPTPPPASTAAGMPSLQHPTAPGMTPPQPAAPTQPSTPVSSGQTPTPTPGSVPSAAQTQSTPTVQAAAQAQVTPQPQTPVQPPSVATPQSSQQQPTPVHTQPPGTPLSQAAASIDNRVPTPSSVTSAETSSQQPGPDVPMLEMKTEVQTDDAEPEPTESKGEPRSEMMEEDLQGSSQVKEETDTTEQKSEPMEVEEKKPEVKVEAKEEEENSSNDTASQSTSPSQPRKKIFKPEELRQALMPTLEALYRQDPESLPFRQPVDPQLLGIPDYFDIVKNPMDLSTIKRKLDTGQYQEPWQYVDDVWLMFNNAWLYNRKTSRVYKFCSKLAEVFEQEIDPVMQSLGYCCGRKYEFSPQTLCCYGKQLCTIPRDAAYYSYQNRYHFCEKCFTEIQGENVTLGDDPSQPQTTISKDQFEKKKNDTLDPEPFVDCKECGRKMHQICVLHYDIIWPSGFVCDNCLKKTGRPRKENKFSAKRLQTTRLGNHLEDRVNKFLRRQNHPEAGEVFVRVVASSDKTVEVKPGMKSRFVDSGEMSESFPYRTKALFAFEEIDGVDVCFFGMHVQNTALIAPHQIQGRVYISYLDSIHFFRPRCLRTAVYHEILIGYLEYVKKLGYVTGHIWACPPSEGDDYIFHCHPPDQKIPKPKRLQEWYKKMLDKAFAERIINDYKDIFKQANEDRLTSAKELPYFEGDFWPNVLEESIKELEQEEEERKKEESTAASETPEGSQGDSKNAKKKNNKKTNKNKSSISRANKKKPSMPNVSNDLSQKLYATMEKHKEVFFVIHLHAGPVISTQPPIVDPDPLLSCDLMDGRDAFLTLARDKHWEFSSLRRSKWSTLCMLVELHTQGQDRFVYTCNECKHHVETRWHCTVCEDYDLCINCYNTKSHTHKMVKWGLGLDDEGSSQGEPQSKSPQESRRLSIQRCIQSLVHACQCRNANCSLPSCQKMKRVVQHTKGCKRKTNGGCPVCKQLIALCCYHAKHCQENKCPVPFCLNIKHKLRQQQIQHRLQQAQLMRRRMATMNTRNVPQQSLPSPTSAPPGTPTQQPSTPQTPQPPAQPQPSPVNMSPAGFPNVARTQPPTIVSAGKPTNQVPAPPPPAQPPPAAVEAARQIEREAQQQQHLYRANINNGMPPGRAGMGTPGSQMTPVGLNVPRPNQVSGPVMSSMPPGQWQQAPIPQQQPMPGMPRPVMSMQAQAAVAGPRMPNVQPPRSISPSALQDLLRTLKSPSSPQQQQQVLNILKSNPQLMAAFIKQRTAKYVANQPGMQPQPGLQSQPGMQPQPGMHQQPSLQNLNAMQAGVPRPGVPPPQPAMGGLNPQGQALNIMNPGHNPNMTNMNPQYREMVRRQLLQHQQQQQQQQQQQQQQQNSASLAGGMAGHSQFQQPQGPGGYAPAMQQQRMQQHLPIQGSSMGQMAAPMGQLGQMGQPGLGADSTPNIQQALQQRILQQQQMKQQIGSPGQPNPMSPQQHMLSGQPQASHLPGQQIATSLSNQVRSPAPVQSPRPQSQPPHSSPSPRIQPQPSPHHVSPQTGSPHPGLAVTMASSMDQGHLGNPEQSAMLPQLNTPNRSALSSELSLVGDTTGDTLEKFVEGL

| Molecule | CRE-dependent transactivation [1] | gapdh mRNA and β-tubulin (c-fos; L-685,458, FIGS. 10B and 10C) | c-fos mRNA (c-fos; L-685,458 vs untreated controls, FIG. 10B) | c-fos protein (c-fos; L-685,458 vs untreated controls, FIG. 10C) | transactivation by CHOP-response elements (CHOP-response elements) | formation of a CBP/CREB complex on CRE-containing DNA templates (CBP/CREB complex) | constitutive and PKA-stimulated CRE-dependent transactivation [2] |
| --- | --- | --- | --- | --- | --- | --- | --- |
| CC(C)C[C@H](NC(=O)[C@H](Cc1ccccc1)C[C@@H](O)[C@H](Cc1ccccc1)NC(=O)OC(C)(C)C)C(=O)N[C@@H](Cc1ccccc1)C(N)=O [L-685,458] | increased | remained unchanged | stimulated | stimulated | – | – | – |
| N-Cad/CTF2: chicken cytoplasmic domain of N-cadherin (N-Cad/CTF2) inserted into vector pECE, expressed in L cells (protein) KRRDKERQAKQLLIDPEDDVRDNILKYDEEGGGEEDQDYDLSQLQQPDTVEPDAIKPVGIRRLDERPIHAEPQYPVRSAAPHPGDIGDFINEGLKAADNDPTAPPYDSLLVFDYEGSGSTAGSLSSLNSSSSGGEQDYDYLNDWGPRFKKLADMYGGGDD | – | – | – | – | not affected | defective in their ability to promote formation of a CBP/CREB complex | inhibits both constitutive and PKA-stimulated CRE-dependent transactivation in a dose-dependent manner |
